# From patent publication US20140303367A1, “Methods for Synthesizing Molybdopterin Precursor Z Derivatives” (Alexion Pharma International Sàrl, priority 2011, published 2014)
# Tests used:
# [1] = biological target: MPT synthase from E. coli (Escherichia coli, UniProt P30748+P30749); experiment: In vitro synthesis of MPT from cPMP; type: biochemical; details: FIGS. 2 and 3; for conversion of cPMP into MPT: all samples
# Source text: In vitro synthesis of MPT was compared using samples of synthetic precursor Z (cPMP) and cPMP purified from E. coli. MPT synthesis also involved the use of in vitro assembled MPT synthase from E. coli. See U.S. Pat. No. 7,504,095 and “Biosynthesis and molecular biology of the molybdenum cofactor (Moco)” in Metal Ions in Biological Systems, Mendel, Ralf R. and Schwarz, Günter, Informa Plc, 2002, Vol. 39, pages 317-68.
# [2] = system: human apo-sulfite oxidase; experiment: In vitro synthesis of Moco from cPMP (conversion into MPT, molybdate insertion, reconstitution of apo-sulfite oxidase); type: biochemical; details: FIG. 1
# Source text: In vitro synthesis of Moco was compared using samples of synthetic precursor Z (cPMP) and cPMP purified from E. coli. Moco synthesis also involved the use of the purified components E. coli MPT synthase, gephyrin, molybdate, ATP, and apo-sulfite oxidase. See U.S. Pat. No. 7,504,095 and “Biosynthesis and molecular biology of the molybdenum cofactor (Moco)” in Metal Ions in Biological Systems, Mendel, Ralf R. and Schwarz, Günter, Informa Plc, 2002, Vol. 39, pages 317-68. The assay is based on the conversion of cPMP into MPT, the subsequent molybdate insertion using recombinant gephyrin and ATP, and finally the reconstitution of human apo-sulfite oxidase.
# Sequence of MPT synthase from E. coli (P30749 whole entry): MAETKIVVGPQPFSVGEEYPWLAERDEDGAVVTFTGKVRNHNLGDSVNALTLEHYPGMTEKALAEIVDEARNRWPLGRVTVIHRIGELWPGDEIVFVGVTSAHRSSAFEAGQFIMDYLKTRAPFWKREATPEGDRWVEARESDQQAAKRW
# Sequence of MPT synthase from E. coli (P30748 whole entry): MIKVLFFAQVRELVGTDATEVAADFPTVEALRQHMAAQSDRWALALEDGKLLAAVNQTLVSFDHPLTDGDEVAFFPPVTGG
SMILES,conversion of cPMP into MPT ([1]; in vitro),"Moco synthesis ([2]; E. coli MPT synthase, gephyrin, molybdate, ATP, apo-sulfite oxidase)",Moco conversion in comparison to E. coli purified cPMP [2],"MPT synthesis ([1]; in vitro assembled MPT synthase from E. coli, three repetitions)","MPT conversion compared to E. coli purified cPMP ([1]; in vitro, three repetitions)"
"Nc1nc(=O)c2c([nH]1)N[C@@H]1O[C@@H]3COP(=O)(O)O[C@@H]3C(O)(O)[C@@H]1N2 [E. coli purified cPMP, reference compound]",linear conversion,–,–,–,–
"Nc1nc2c(c(=O)[nH]1)N[C@@H]1[C@H](N2)O[C@@H]2COP(=O)(O)O[C@@H]2C1(O)O [synthetic cPMP, (4aR,5aR,11aR,12aS)-1,3,2-Dioxaphosphorino[4′,5′:5,6]pyrano[3,2-g]pteridin-10(4H)-one,8-amino-4a,5a,6,9,11,11a,12,12a-octahydro-2,12,12-trihydroxy-2-oxide]",linear conversion,confirmed,no differences,confirmed,no apparent differences
